Data: the supplement of paper PMC10307832

Assays:
Experiment in all cases: relative viability (nuclei count vs DMSO), 5 days (fraction); higher = more cells survive
[1] = compound: CC1=CN=C(N=C1C2=CNC(=C2)C(=O)N[C@H](CO)C3=CC(=CC=C3)Cl)NC4=C(C=C(C=C4)F)Cl [VX-11e] + CCNC(=O)c1noc(-c2cc(C(C)C)c(O)cc2O)c1-c1ccc(CN2CCOCC2)cc1 [Luminespib] (partner 0.01 µM)
Outline: (§1)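 Five library-drug doses in √10 steps were combined with a fixed anchor-drug dose, or a single drug was given alone, by pin tool to lung cancer cell lines in 1536-well plates the day after seeding. Nuclei were stained and counted after 5 days. Relative viability is the nuclei count in treated wells over that in vehicle wells, taken as the median of duplicate plates.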

[2] = compound: CC1=CN=C(N=C1C2=CNC(=C2)C(=O)N[C@H](CO)C3=CC(=CC=C3)Cl)NC4=C(C=C(C=C4)F)Cl [VX-11e] + COc1cccc2cc(-c3nc([C@H]4CC[C@H](C(=O)O)CC4)n4ncnc(N)c34)[nH]c12 [OSI-027] (partner 0.5 µM)
Outline: as §1

[3] = compound: CC1=CN=C(N=C1C2=CNC(=C2)C(=O)N[C@H](CO)C3=CC(=CC=C3)Cl)NC4=C(C=C(C=C4)F)Cl [VX-11e] + CS(=O)(=O)CCNCc1ccc(-c2ccc3ncnc(Nc4ccc(OCc5cccc(F)c5)c(Cl)c4)c3c2)o1 [Lapatinib] (partner 2 µM)
Outline: as §1

[4] = compound: CC1=CN=C(N=C1C2=CNC(=C2)C(=O)N[C@H](CO)C3=CC(=CC=C3)Cl)NC4=C(C=C(C=C4)F)Cl [VX-11e] + C[C@]1(O)C[C@@H](c2nc(-c3ccc4ccc(-c5ccccc5)nc4c3)c3c(N)nccn32)C1 [Linsitinib] (partner 1 µM)
Outline: as §1

Cell Line | relative viability ([1]; first compound 0.04 µM) | relative viability ([1]; first compound 0.1265 µM) | relative viability ([1]; first compound 1.265 µM) | relative viability ([1]; first compound 4 µM) | relative viability ([2]; first compound 0.04 µM) | relative viability ([2]; first compound 0.1265 µM) | relative viability ([2]; first compound 1.265 µM) | relative viability ([2]; first compound 4 µM) | relative viability ([3]; first compound 0.04 µM) | relative viability ([3]; first compound 0.1265 µM) | relative viability ([3]; first compound 0.4 µM) | relative viability ([3]; first compound 1.265 µM) | relative viability ([3]; first compound 4 µM) | relative viability ([4]; first compound 0.04 µM) | relative viability ([4]; first compound 0.1265 µM) | relative viability ([4]; first compound 0.4 µM) | relative viability ([4]; first compound 1.265 µM) | relative viability ([4]; first compound 4 µM) | relative viability ([1]; first compound 0.4 µM) | relative viability ([2]; first compound 0.4 µM)
SK-LU-1 | 0.179 | 0.196 | 0.199 | 0.177 | 0.285 | 0.352 | 0.233 | 0.132 | 0.897 | 0.744 | 0.524 | 0.752 | 0.272 | 0.597 | 0.925 | 1.31 | 0.771 | 0.316 |  | 
NCI-H1563 | 0.522 | 0.555 | 0.508 | 0.465 | 0.729 | 0.697 | 0.822 | 0.789 | 0.938 | 0.795 | 0.529 | 0.854 | 0.864 | 1.21 | 1.2 | 1.22 | 1.11 | 1.06 | 0.488 | 0.705
SK-MES-1 | 0.838 | 0.634 | 0.406 | 0.262 | 0.585 | 0.436 | 0.552 | 0.185 | 0.452 | 0.414 | 0.47 | 0.436 | 0.282 | 1.08 | 1.03 | 1.07 | 1.05 | 0.691 | 0.766 | 0.632
LCLC-97TM1 | 0.781 | 0.693 | 0.393 | 0.263 | 0.494 | 0.274 | 0.418 | 0.175 | 1.09 | 0.8 |  | 0.226 | 0.171 | 0.158 | 0.172 |  | 0.203 | 0.116 | 0.615 | 0.287
NCI-H596 | 0.898 | 0.982 | 0.755 | 0.765 | 0.518 | 0.691 | 0.349 | 0.407 | 1.2 | 0.938 | 0.933 | 0.917 | 0.774 | 1.06 | 0.944 | 0.981 | 0.874 | 0.769 | 0.699 | 0.525
NCI-H2126 | 0.824 | 0.877 | 0.964 | 0.737 | 0.533 | 0.816 | 0.448 | 0.541 |  | 0.752 | 0.752 | 0.742 | 0.599 |  | 0.735 | 0.689 | 0.677 | 0.556 |  | 0.315
BEN |  | 0.241 | 0.376 | 0.264 |  | 0.274 | 0.285 | 0.242 |  | 0.637 | 0.888 | 0.45 | 0.728 | 1.04 | 0.701 | 0.923 | 0.54 | 0.783 | 0.475 | 0.302
NCI-H1651 | 0.977 | 0.847 | 0.796 | 0.672 | 0.56 | 0.62 | 0.548 | 0.591 | 0.639 | 0.747 | 0.634 | 0.602 | 0.654 | 1.05 | 1.02 | 0.797 | 0.927 | 0.758 | 0.784 | 0.523
NCI-H1993 | 1.12 | 0.918 | 1.02 | 0.663 | 0.556 | 0.538 | 0.605 | 0.677 |  | 0.818 |  | 0.73 | 0.727 |  | 0.757 |  | 0.769 | 0.666 | 0.484 | 0.557
NCI-H1975 | 0.232 | 0.199 | 0.283 | 0.186 | 0.695 | 0.499 | 0.415 | 0.162 | 0.925 | 0.862 | 0.665 | 0.811 | 0.342 | 0.841 | 1.09 | 0.991 | 0.959 | 0.367 | 0.156 | 0.291
NCI-H727 | 0.293 | 0.294 | 0.312 | 0.371 | 0.353 | 0.678 | 0.447 | 0.284 | 0.699 | 0.591 | 1.19 | 0.501 | 0.307 | 0.314 | 0.252 | 0.215 | 0.274 | 0.184 | 0.291 | 0.522
LC-2-ad | 1.18 | 0.947 | 0.883 | 0.815 | 0.73 | 0.534 | 0.584 | 0.466 | 0.929 | 0.792 | 0.881 | 0.399 | 0.547 | 0.831 | 0.852 | 0.787 | 0.572 | 0.508 | 0.633 | 0.363
NCI-H2085 | 0.378 | 0.433 | 0.323 | 0.276 | 0.625 | 0.695 | 0.322 | 0.251 | 0.596 | 0.765 | 0.73 | 0.647 | 0.608 | 0.987 | 0.818 | 0.834 | 0.9 | 0.649 | 0.396 | 0.517
NCI-H2347 | 0.293 | 0.548 | 0.269 | 0.366 | 0.418 | 0.467 | 0.255 | 0.21 | 1.05 | 0.878 | 0.809 | 0.809 | 0.453 | 1.07 | 0.927 | 0.798 | 0.7 | 0.496 | 0.323 | 0.337
SW 1573 | 0.233 | 0.206 | 0.384 | 0.133 | 0.52 | 0.561 | 0.402 | 0.194 | 1.11 | 0.979 | 1.07 | 0.891 | 0.472 | 1.03 | 0.959 | 0.718 | 0.78 | 0.432 | 0.23 | 0.708
LK-2 | 0.197 | 0.198 | 0.182 | 0.183 | 0.163 | 0.187 | 0.153 | 0.17 |  | 0.832 | 0.812 | 0.522 | 0.439 | 0.774 | 0.672 | 0.555 | 0.205 | 0.313 | 0.193 | 0.146
